The source of these data is article PMC11288129, “Diversely evolved xibalbin variants from remipede venom inhibit potassium channels and activate PKA-II and Erk1/2 signaling” (BMC Biology, 2024).

Holding throughout (assay type): cell-based
In experiment [1] the test system is PKA-II (phospho-RIIα/β) in rat DRG neurons. In words: High-content imaging of PKA-II activity (pRII) in DRG sensory neurons. The protocol:
(§1) To gauge sensory neuron activity in response to various activating stimuli, including electrical activity, phosphorylation state detection of protein kinase A type II (PKA-II) and MAP kinase Erk1/2 can act as surrogate measurements. Consequently, we tested for increased phosphorylation states in a concentration-dependent manner following exposure to xibalbins. Dissociated DRG neurons were cultured overnight and then exposed to increasing concentrations of the corresponding xibalbins for 5 min and 30 min, respectively. As a positive control, forskolin (Fsk) was also used to induce cAMP synthesis. The activity of PKA-II was monitored by antibodies directed against the phosphorylation site of the inhibitory regulatory subunits RIIα/β, which is exclusively accessible when the catalytic kinase domain is released during kinase activation. For measuring Erk1/2 activity, phospho-sites on Erk1/2 (T202/Y204) were monitored through immunofluorescence, as these sites are phosphorylated during activation. Cellular images were captured using HCI microscopy (Fig. 8A), and the average intensity of each phospho-antibody was quantified (Fig. 8B).
(§2) Fig. 8 A Representative images of rat DRG neurons stimulated with PBS (Ctrl) and xib1b (0.8 µg/µL). Cells were stained for UCHL1, pRII, pERK1/2, and Hoechst followed by fixation and staining with standard immunocytochemistry protocols. Green-encircled neurons indicate automatically selected objects. Scale bar: 100 µm. B Mean intensities of UCHL1, pRII, and pERK1/2. The same UCHL1 intensities were observed among tested groups. Forskolin (Fsk), an activator of adenylyl cyclase, was used as a positive control. Fsk at 6 µM concentration induced an increase in pRII and pERK1/2 intensities at 5 and 30 min. Number of analyzed cells per replica: 750 ± 200. Eight independent replicas. C–F Concentration responses of xibalbin toxins (0.005 to 0.8 µg/µL) and mean intensities of pRII and pERK1/2 at 5 min and 30 min. G–H Size versus pRII and pErk1/2 intensities of cells treated with 0.8 µg/µL of xib1 and xib13. Small-sized cells were responding to xibalbins. Statistical significance was assessed using one-way ANOVA with Dunnett’s post hoc test. Data represent mean ± S.E.M (standard error of the mean), n = 4, see “Methods” for details and Additional File 6: Table S2 for individual data values
(§3) Male Sprague Dawley rats (250–400 g, 8–16 weeks old) were obtained from Envigo. Rats were kept in 12 h of light/darkness cycles. All experiments were performed in accordance with the German animal welfare law with permission of the District Government for Nature and Environment, NRW (84–02.05.20.13.045, 4.18.003). Rats were scarified by slow inhalation of CO2 which was followed by decapitation. DRGs were extracted from rats, deheated, pooled, and incubated in Neurobasal A/B27 medium (Invitrogen, #12349–015) supplemented with B-27 (Invitrogen #17504), L-glutamine 1:400, L-glutamate 1:270.3, and penicillin/streptomycin 1:100 containing 0.2 U/mL collagenase P (collagenase P, Roche, #1213857) and incubated for 1 h at 37 °C, 5% CO2. DRGs were dissociated with pasteur pipettes and axon stumps were separated by BSA (Sigma-Aldrich, # A2153-100G) gradient centrifugation (14% BSA, 120 g, 8 min). Cells were resuspended in NBA medium, plated in 96-well imaging plate (Greiner BioOne Sensoplate, Black, #655896) precoated with poly-L-ornithine hydrochloride (0.1 mg/ml Sigma, #P2533)/laminin (5 µg/ml Invitrogen, #23017–015), and incubated overnight at 37 °C, 5% CO2.
(§4) DRGs were stimulated after overnight incubation. Compounds were prepared as tenfold concentrated stock solutions, diluted in PBS (PAA, cat# H15-002), in v-bottom plates; 50 µL media from culture wells were mixed with the […] stock solutions, and 50 µL added back to the respective wells. Stimulation was performed with automated multichannel pipette and cells were kept in heated block during the stimulation. […]

Experiment [2] deals with Erk1/2 (T202/Y204) in rat DRG neurons. In words: High-content imaging of pERK1/2 in DRG sensory neurons. Conditions: positive control Fsk 6 µM; 5 and 30 min. The protocol: as §1, §2, §3, §4
The test system of experiment [3] is HEK293T cells. In words: Ca2+ influx induction, Fluo-8 calcium imaging. Conditions: HEK293 cells. The protocol: We examined the potential of xibalbins in a concentration range of 0.25 to 25 µg/ml regarding their effects on Ca^2+ influx in HEK293 cells, which express calcium channels. […] However, exposure to none of the four xibalbin variants by itself did increase [Ca^2+]i as measured by Fluo-8 calcium imaging assay. Additionally, none of the xibalbin variants modulated forskolin-induced [Ca^2+]i increase (Additional File 7: Figure S5 A). We also evaluated the effect of xibalbins on cAMP synthesis. However, xibalbins had no effect on increasing cAMP synthesis in HEK293 cells or on preventing the forskolin-induced cAMP synthesis (Additional File 7: Figure S5 B).
Supplementary file 12915_2024_1955_MOESM7_ESM.jpg: Additional file 7: Figure S5. […] A threshold of fluorescence intensity was defined using cells before treatment, all cells above the threshold level were counted. […] For the induction assay (left panel), the luminescence was detected (background, 3 measurements every 5 min) and then the xibalbins (0.25, 2.5, 25 μg/ml) or 5 μM forskolin were added to detect the luminescence (3 measurements/5 min) using a plate reader (Spark, Tecan, Männedorf, Switzerland). For the inhibition assay (right panel), the xibalbin-treated cells were incubated with 5 μM forskolin to detect the luminescence (3 measurements/5 min). […] After 24 h NO was determined in supernatants with the Griess method. […]

Regarding `C=C[C@@]1(C)CC(=O)[C@]2(O)[C@@]3(C)[C@@H](O)CCC(C)(C)[C@@H]3[C@H](O)[C@H](OC(C)=O)[C@@]2(C)O1` [Forskolin, reference compound], the “pRII intensity” value in experiment [1] (positive control Fsk 6 µM, 5 and 30 min) was “increase”. Further, the “pRII response by neuron size” value in experiment [1] (xibalbins 0.8 µg/µL) was “activated both small and large-sized sensory neurons”. Also, the “pERK1/2 intensity” value in experiment [2] is reported as “increase”. The “increase of [Ca2+]i by positive control” value in experiment [3] is “increased [Ca^2+]i”.
